Data as given in patent publication US20260193244A1 (Protego Biopharma, Inc., priority 2022, published 2026).
Where a name gives a salt, the structure may show the parent alone.

Test system: IRE1-XBP1s (HEK293 T-REx cells stably expressing the XBP1-RLuc splicing reporter)
Experiment: IRE1-XBP1s activation Assay (XBP1-RLuc splicing reporter, luminescence relative to thapsigargin, with or without IRE1 inhibitor 4μ8C)
Assay type: cell-based
Conditions: 18 h, compound 10 μM, luminescence as percentage signal relative to thapsigargin (Tg) (500 nM, 18 h)
Experimental: IRE1-XBP1s activation Assay: HEK293 T-REx cells stably expressing the XBP1-RLuc splicing reporter were treated with an IRE1-XBP1s activator provided herein (10 μM) in the presence or absence of the IRE1 active site inhibitor 4μ8C (32 μM) for 18 h. Luminescence was shown as the percentage signal relative to thapsigargin (Tg) (500 nM, 18 h).

Structure (SMILES)	activation at 10 µM
Cc1ccc(OCCN(C)C(=O)Cn2cc(N(C)C(=O)C3CCC(Oc4ccccc4)CC3)cn2)cc1 (centres unmarked) [Compound 17]	< 30%
CN(C(=O)Cn1cc(NC(=O)CCOc2ccccc2)cn1)C12CCC(Oc3ccc(C(F)(F)F)cc3)(CC1)CC2 [Compound 70]	≥ 50%
Cc1ccc(OCCN(C)C(=O)Cn2cc(N(C)C(=O)[C@@H]3CCCN(C(=O)c4ccccc4)C3)cn2)cc1 [Compound 15]	< 30%
CN(C(=O)Cn1cc(NC(=O)CCOc2ccccc2)cn1)c1ccc(Oc2ccc(C(F)(F)F)cc2)c(F)c1 [Compound 54]	< 30%
Cc1ccc(OC2CCCCN(C(=O)Cn3cc(NC(=O)CCNc4ccnc(F)n4)cn3)C2)cc1 (centres unmarked) [Compound 171, 3-[(2-fluoropyrimidin-4-yl)amino]-N-[1-[2-[3-(4-methylphenoxy)azepan-1-yl]-2-oxo-ethyl]pyrazol-4-yl]propanamide]	< 30%
Cc1ccc(OCCN(C)C(=O)Cn2cc(NC(=O)C3COc4ccccc43)cn2)cc1 (centres unmarked) [Compound 67]	< 30%
Cc1ccc(C2CN(C(=O)Cn3cc(NC(=O)CCOc4ccccc4)cn3)CCN2C)cc1 (centres unmarked) [Compound 45, N-(1-(2-(4-methyl-3-(p-tolyl)piperazin-1-yl)-2-oxoethyl)-1H-pyrazol-4-yl)-3-phenoxypropanamide]	< 30%
COc1ncc(Cl)cc1NCCC(=O)Nc1cnn(CC(=O)N2CCC[C@H](Oc3ccc(C)cc3)C2)c1 [Compound 157]	≥ 50%
Cc1ccc(OC2CCC23CN(C(=O)Cn2cc(NC(=O)C4CC(Oc5ccncc5)C4)cn2)C3)cc1 (centres unmarked) [Compound 144]	≥ 50%
Cc1ccc(OCCN(C)C(=O)Cn2cc(NC(=O)C3CCC(Oc4ccncc4)CC3)cn2)cc1 (centres unmarked) [Compound 102]	≥ 50%
Cc1ccc(OCCN(C)C(=O)Cn2cc(NC(=O)[C@@H]3COc4ccccc4O3)cn2)cc1 [Compound 156]	< 30%
Cc1ccc(OCCN(C)C(=O)Cn2cc(NC(=O)C3CCC(Oc4ccncc4)C3)cn2)cc1 (centres unmarked) [Compound 104]	≥ 50%
Cc1ccc(OC2COCCN(C(=O)Cn3cc(NC(=O)CCOc4ccccc4)cn3)C2)cc1 (centres unmarked) [Compound 65]	30 to 50%
Cc1ccc(OCCC(=O)Nc2cnn(CC(=O)N3CCCCC(Oc4ccccc4)C3)c2)cc1 (centres unmarked) [Compound 48]	< 30%
Cc1ccc(OCCN(C)C(=O)Cn2cc(NC(=O)[C@H]3C[C@H](Oc4c(F)cncc4C(C)C)C3)cn2)cc1 [Compound 162]	< 30%
Cc1ccc(O[C@@H]2CCCN(C(=O)Cn3cc(NC(=O)CCOc4ccc(F)cc4C)cn3)C2)cc1 [Compound 93]	≥ 50%
Cc1ccc(OCCN(C)C(=O)Cn2cc(NC(=O)C3CC(Nc4ccncc4)C3)cn2)cc1 (centres unmarked) [Compound 135]	< 30%
Cc1ccc(OC2CCC23CCN(C(=O)Cn2cc(NC(=O)CCOc4cccc(C)n4)cn2)C3)cc1 (centres unmarked) [Compound 195, 3-((6-methylpyridin-2-yl)oxy)-N-(1-(2-oxo-2-(1-(p-tolyloxy)-6-azaspiro[3.4]octan-6-yl)ethyl)-1H-pyrazol-4-yl)propanamide]	≥ 50%
Cc1ccc(OC2CCCN(C(=O)Cn3cc(NC(=O)CCOc4cc(Cl)ccc4F)cn3)C2)cc1 (centres unmarked) [Compound 80]	≥ 50%
Cc1ccc(Oc2ccc(N(C)C(=O)Cn3cc(NC(=O)CCOc4ccccc4C)cn3)cc2)cc1 [Compound 32, N-(1-(2-(methyl(4-(p-tolyloxy)phenyl)amino)-2-oxoethyl)-1H-pyrazol-4-yl)-3-(o-tolyloxy)propanamide hydrochloride]	< 30%

Structure (SMILES)	activation at 10 µM
Cc1ccc(OC2CCC23CN(C(=O)Cn2cc(NC(=O)CCNc4ccnc(F)n4)cn2)C3)cc1 (centres unmarked) [Compound 177]	≥ 50%
Cc1ccc(C2CCCN(C(=O)Cn3cc(NC(=O)CCOc4ccccc4)cn3)C2)cc1 (centres unmarked) [Compound 28]	< 30%
Cc1ccc(O[C@H]2CCCN(C(=O)Cn3cc(NC(=O)COc4ccccc4)cn3)C2)cc1 [Compound 146, N-[1-[2-[(3S)-3-(4-methylphenoxy)-1-piperidyl]-2-oxo-ethyl]pyrazol-4-yl]-2-phenoxy-acetamide]	< 30%
Cc1ccc(OCCN(C)C(=O)Cn2cc(NC(=O)C3CC(Oc4ccccn4)C3)cn2)cc1 (centres unmarked) [Compound 140]	≥ 50%
Cc1ccc(Oc2c(F)cc(N(C)C(=O)Cn3cc(NC(=O)CCOc4ccccc4)cn3)cc2F)cc1 [Compound 55]	< 30%
[2H]C([2H])([2H])c1ccc(OCCN(C)C(=O)Cn2cc(NC(=O)C3CNc4ccccc4O3)cn2)cc1 (centres unmarked) [Compound 201]	≥ 50%
Cc1cccc(OCCC(=O)Nc2cnn(CC(=O)N(C)c3ccc(Oc4ccccc4)cc3)c2)c1 [Compound 35]	< 30%
O=C(Cn1cc(NC(=O)[C@H]2C[C@H](Oc3ccccn3)C2)cn1)N1CCC[C@H](Oc2ccc(C(F)(F)F)cn2)C1 [Compound 145]	< 30%
Cc1ccc(OC2CCCN(C(=O)Cn3cc(NC(=O)CCNc4ccnc(F)n4)cn3)CC2)cc1 (centres unmarked) [Compound 172]	< 30%
Cc1ccc(OCCN(C)C(=O)Cn2cc(N(C)C(=O)C3CN(Cc4ccccc4)CCO3)cn2)cc1 (centres unmarked) [Compound 14]	< 30%
Cc1ccc(N2CCCN(C(=O)Cn3cc(NC(=O)CCOc4ccccc4)cn3)CC2)cc1 [Compound 23]	< 30%
Cc1ccc(OCCC(=O)Nc2cnn(CC(=O)N(C)c3ccc(Oc4ccc(C)cc4)cc3)c2)cc1 [Compound 27]	< 30%
Cc1ccc(OC2CCCN(C(=O)Cn3cc(NC(=O)CCOc4ccccc4)cn3)C2)cc1 (centres unmarked) [Compound 11]	30 to 50%
Cc1ccc(OCCN(C)C(=O)Cn2cc(NC(=O)COC3CCCN(c4ccnc(F)n4)C3)cn2)cc1 (centres unmarked) [Compound 137]	< 30%
Cc1ccc(O[C@H]2CCCN(C(=O)Cn3cc(NC(=O)C4CC(Oc5ccccn5)C4)cn3)C2)cc1 (some centres unmarked) [Compound 105]	30 to 50%
Cc1ccc(OCCN(C)C(=O)Cn2cc(NC(=O)C3COc4ccccc4C3)cn2)cc1 (centres unmarked) [Compound 60]	< 30%
COc1ccc(N(C)C(=O)Cn2cc(NC(=O)CCOc3ccccc3)cn2)cc1 [Compound 113]	< 30%
Cc1ccc(OC2CCN(C(=O)Cn3cc(NC(=O)CCOc4ccccc4)cn3)CC2)cc1 [Compound 9]	< 30%
Cc1ccc(OC2CCCN(C(=O)Cn3cc(NC(=O)CCOc4cncc(F)c4)cn3)C2)cc1 (centres unmarked) [Compound 75]	< 30%
CC1(Oc2ccc(Br)cc2)CCCN(C(=O)Cn2cc(NC(=O)CCOc3ccccc3F)cn2)C1 (centres unmarked) [Compound 78]	< 30%

Structure (SMILES)	activation at 10 µM
Cc1ccc(C(=O)c2ccc(N(C)C(=O)Cn3cc(NC(=O)CCOc4ccccc4)cn3)cn2)cc1 [Compound 115]	< 30%
Cc1ccc(OCCN(C)C(=O)Cn2cc(NC(=O)c3cnccc3N)cn2)cc1 [Compound 112]	< 30%
Cc1ccc(O[C@H]2CCCN(C(=O)Cn3cc(NC(=O)[C@H]4C[C@H](Oc5ccccn5)C4)cn3)C2)cc1 [Compound 106]	≥ 50%
Cc1ccc(OCCN(C)C(=O)Cn2cc(NC(=O)C3CNCC3Nc3ccnc(O)n3)cn2)cc1 (centres unmarked) [Compound 133]	< 30%
Cc1ccc(OCCN(C)C(=O)Cn2cc(NC(=O)C3CCCC(Oc4ccncc4)C3)cn2)cc1 (centres unmarked) [Compound 101]	< 30%
Cc1ccc(OC2CCCN(C(=O)Cn3cc(NC(=O)CCOc4ccccc4-c4ccccc4)cn3)C2)cc1 (centres unmarked) [Compound 74]	< 30%
Cc1ccc(O[C@H]2CCCN(C(=O)Cn3cc(NC(=O)C4CN(C(=O)OC(C)(C)C)c5ccccc5O4)cn3)C2)cc1 (some centres unmarked) [Compound 121]	< 30%
Cc1ccc(O[C@@H]2CCCN(C(=O)Cn3cc(NC(=O)CCNc4ccnc(F)n4)cn3)C2)cc1 [Compound 176]	30 to 50%
Cc1ccc(Oc2cccc(N(C)C(=O)Cn3cc(NC(=O)CCOc4ccccc4)cn3)c2)cc1 [Compound 116]	< 30%
O=C(CCOc1ccccc1)Nc1cnn(CC(=O)N2CCCN(Cc3ccncc3)CC2)c1 [Compound 52, N-(1-(2-oxo-2-(4-(pyridin-4-ylmethyl)-1,4-diazepan-1-yl)ethyl)-1H-pyrazol-4-yl)-3-phenoxypropanamide]	< 30%
Cc1ccc(OCCC(=O)Nc2cnn(CC(=O)N3CCCC(Oc4ccc(C)cc4)C3)c2)cc1 (centres unmarked) [Compound 37]	30 to 50%
Cc1ccc(OCCN(C)C(=O)Cn2cc(NC(=O)C3CNc4ncccc4O3)cn2)cc1 (centres unmarked) [Compound 90, N-(1-(2-(methyl(2-(p-tolyloxy)ethyl)amino)-2-oxoethyl)-1H-pyrazol-4-yl)-3,4-dihydro-2H-pyrido[3,2-b][1,4]oxazine-2-carboxamide hydrochloride]	30 to 50%
Cc1ccc(OCCN(C)C(=O)Cn2cc(NC(=O)OC3CCCN(c4ccnc(F)n4)C3)cn2)cc1 (centres unmarked) [Compound 130, 1-(2-fluoropyrimidin-4-yl)piperidin-3-yl (1-(2-(methyl (2-(p-tolyl-oxy)ethyl)amino)-2-oxoethyl)-1H-pyrazol-4-yl)carbamate]	< 30%
Cc1ccc(OCCN(C)C(=O)Cn2cc(NC(=O)C3Oc4ccccc4O3)cn2)cc1 [Compound 128]	< 30%
Cc1ccc(O[C@H]2CCCN(C(=O)Cn3cc(NC(=O)COc4ccccn4)cn3)C2)cc1 [Compound 150]	< 30%
Cc1ccc(OCCN(C)C(=O)Cn2cc(NC(=O)CCN3CCOc4ccccc43)cn2)cc1 [Compound 85]	< 30%
Cc1ccc(OC2CC3CC2N(C(=O)Cn2cc(NC(=O)CCNc4ccnc(F)n4)cn2)C3)cc1 (centres unmarked) [Compound 174]	< 30%
Cc1ccc(OC2CCCN(C(=O)Cn3cc(NC(=O)CCOc4c(F)cccc4F)cn3)C2)cc1 (centres unmarked) [Compound 86]	30 to 50%
Cc1ccc(OC2CCCN(C(=O)Cn3cc(NC(=O)CCC4(c5ccccc5F)CC4)cn3)C2)cc1 (centres unmarked) [Compound 100, 3-(1-(2-fluorophenyl)cyclopropyl)-N-(1-(2-oxo-2-(3-(p-tolyloxy)piperidin-1-yl)ethyl)-1H-pyrazol-4-yl)propanamide]	< 30%
